From patent publication US20210189327A1, “3D […] CONSTRUCTS AND METHODS OF MAKING THEREOF” (McMaster University, priority 2019, published 2021)

System: MCF-7 cells
Assay: Effect of actin cytoskeleton impairment on spheroid formation and consolidation
Assay type: cell-based
Details: 100 nM; 1 hr pretreatment without (T-nT) or with (T-T) the same concentration during spheroid formation; 5×10^5 MCF-7 cells in large wells; P-value>0.05
Method: Rapid Formation of Spheroidal Tissue Constructs. In order to form spheroidal tissue constructs, PDMS molds in the form of circular wells with spherical bottom were used. These molds were prepared by mixing PDMS and its curing agent with the ratio of 10:1 and casting it on the Poly lactic acid (PLA) master mold with negative of the required patterns. Master molds were designed using software Solidworks© and 3D printed using a Stereolithography (SLA) based 3D printer (Objet 24 Desktop 3D printer). A large and small well size were created with diameters of 4 and 2.5 mm respectively. MCF-7 (Michigan Cancer Foundation-7, a breast cancer cell line) cells were cultured in Dulbecco's Modified Eagle Medium (DMEM) (Thermofisher, high glucose) supplemented with 10% V/V fetal bovine serum (FBS) (Thermofisher, US origin) and 1% Penicillin-Streptomycin (Thermofisher, 10000 U/mL) until 70% confluent. Cells were trypsinized and detached from tissue culture flasks. Required number of cells (10^5 or 10^6) were aliquoted, precipitated using centrifugation, and resuspended in proper amount of medium (5 μL for small wells, 15 μL for large wells). The cell solution then was added to the equal amount of bovine collagen type I (Thermofisher, 5 mg/mL) and mixed to get a uniform distribution of cells. […]

C/C1=C/C(=O)O[C@@H]2C[C@@H](CC[C@H](C)/C=C\C=C\CC1)O[C@@](O)([C@@H]1CSC(=O)N1)C2 [latrunculin A, Latrunculin A]
difference between spheroid radii after 6 hrs versus untreated control (nT-nT): no meaningful difference
